Target: T1, hGPR120 (Homo sapiens, UniProt Q5NUL3)
T1 construct: expressed in transfected cells; host or cells: CHO-K1
T1 sequence (Q5NUL3 1-361): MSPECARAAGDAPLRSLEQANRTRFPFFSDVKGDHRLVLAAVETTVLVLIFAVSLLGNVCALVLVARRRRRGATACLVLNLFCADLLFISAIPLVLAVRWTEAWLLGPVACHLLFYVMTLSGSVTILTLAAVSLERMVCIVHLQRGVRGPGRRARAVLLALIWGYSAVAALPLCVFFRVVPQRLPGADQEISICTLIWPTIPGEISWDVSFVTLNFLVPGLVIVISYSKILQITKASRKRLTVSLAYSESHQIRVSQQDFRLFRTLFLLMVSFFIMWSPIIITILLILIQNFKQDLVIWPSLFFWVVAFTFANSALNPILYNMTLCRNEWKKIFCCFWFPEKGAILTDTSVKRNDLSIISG
Experiment: Measurement of Activity of GPR120 Agonist (Cell-Based Assay), Calcium 5 dye fluorescence
Conditions: CHO-K1 cells expressing Ga16 and hGPR120
Procedure, shortened: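 CHO-K1 cells co-expressing Gα16 and hGPR120 were seeded, cultured 18 h at 37 °C, then loaded 1 h with Calcium 5 dye. Serially diluted agonists (final 0.5% DMSO) were added and fluorescence read at Ex 485/Em 525 nm, expressed as percent relative to 1% DMSO-only wells.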

In the case of `O=C(O)COCCc1c(F)cc(-c2cccnc2SC2CCC2)cc1F` [Example 38, {2-[4-(2-cyclobutylsulfanyl-3-pyridyl)-2,6-difluoro-phenyl]ethoxy}acetic acid], the EC50 is reported as 200 to 2000 nM.
With `COc1ccc(-c2cc(F)c(C(C)CCCC(=O)O)c(F)c2)c2c1OC(C)(C)C2` (stereo not shown) [Example 260] the EC50 was less than 200 nM.
In the case of `CN(CCCC(=O)O)c1c(F)cc(-c2cccc(OC3CCC3)n2)cc1F` [Example 205, 4-{[4-(6-cyclobutoxy-pyridin-2-yl)-2,6-difluoro-phenyl]-methyl-amino}-butyric acid], the EC50 is reported as less than 200 nM.
Work on `CC(C)(C)Oc1cccc(-c2cc(F)c(N3CCC(CC(=O)O)CC3)c(F)c2)n1` [Example 309, 2-[1-[4-(6-tert-butoxy-2-pyridyl)-2,6-difluoro-phenyl]-4-piperidyl]acetic acid] yielded an EC50 of 200 to 2000 nM.
With `CC(C)N(C)c1ccccc1-c1cc(F)c(N(C)CCCC(=O)O)c(F)c1` [Example 223, 4-{[3,5-difluoro-2′-(isopropyl-methyl-amino)-biphenyl-4-yl]-methyl-amino}-butyric acid] the EC50 was less than 200 nM.
With `CN(CCCC(=O)O)c1c(F)cc(-c2ccccc2NC2CCCC2)cc1F` [Example 215, 4-[(2′-cyclopentylamino-3,5-difluoro-biphenyl-4-yl)-methyl-amino]-butyric acid] the EC50 was less than 200 nM.
In the case of `CC(C)(C)Sc1cccc(-c2ccc3c(c2)CCC(CCC(=O)O)O3)n1` (stereo not shown) [Example 451, 3-[6-(6-tert-butylsulfanyl-2-pyridyl)chroman-2-yl]propanoic acid], the EC50 is reported as less than 200 nM.
Molecule `O=C(O)CC1CCN(c2c(F)cc(-n3ccc4cccc(Cl)c43)cc2F)CC1` [Example 481, 2-[1-[4-(7-chloroindol-1-yl)-2,6-difluoro-phenyl]-4-piperidyl]acetic acid] has an EC50 of 2000 to 20000 nM.
Molecule `O=C(O)C[C@@H]1CCN(c2c(F)cc(-c3cccnc3OC3CCCC3)cc2F)C1` [Example 137, 2-[(3S)-1-[4-[2-(cyclopentoxy)-3-pyridyl]-2,6-difluoro-phenyl]pyrrolidin-3-yl]acetic acid] has an EC50 of less than 200 nM.
In the case of `CC(CCCC(=O)O)c1c(F)cc(-c2cccnc2OC2CCC2)cc1F` (stereo not shown) [Example 59, 5-[4-(2-cyclobutoxy-3-pyridyl)-2,6-difluoro-phenyl]hexanoic acid], the EC50 is reported as less than 200 nM.
Work on `CC(C)COc1cncc(-c2cc(F)c(N3CCC(CC(=O)O)CC3)c(F)c2)n1` [Example 342, 2-[1-[2,6-difluoro-4-(6-isobutoxypyrazin-2-yl)phenyl]-4-piperidyl]acetic acid] yielded an EC50 of less than 200 nM.
Molecule `O=C(O)CCCOc1c(F)cc(-n2ccc3ccc(Cl)cc32)cc1F` [Example 463, 4-[4-(6-chloroindol-1-yl)-2,6-difluoro-phenoxy]butanoic acid] has an EC50 of less than 200 nM.
Work on `CCCOc1cc(C(F)(F)F)nc(-c2cc(F)c(N3CCC(CC(=O)O)CC3)c(F)c2)n1` [Example 618, {1-[2,6-difluoro-4-(4-propoxy-6-trifluoromethyl-pyrimidin-2-yl)-phenyl]-piperidin-4-yl}-acetic acid] yielded an EC50 of 2000 to 20000 nM.
In the case of `CN(CCCC(=O)O)c1c(F)cc(-c2cccnc2OCC2CCC2)cc1F` [Example 218, 4-{[4-(2-cyclobutylmethoxy-pyridin-3-yl)-2,6-difluoro-phenyl]-methyl-amino}-butyric acid], the EC50 is reported as less than 200 nM.
Molecule `CN(CCCC(=O)O)c1c(F)cc(-c2cccc(OC3CCC3)c2)cc1F` [Example 199, 4-[(3′-cyclobutoxy-3,5-difluoro-biphenyl-4-yl)-methyl-amino]-butyric acid] has an EC50 of less than 200 nM.
In the case of `O=C(O)CC1CCN(c2c(F)cc(-c3ncc(F)c(OCC4CC4)n3)cc2F)C1` (stereo not shown) [Example 593, {1-[4-(4-cyclopropylmethoxy-5-fluoro-pyrimidin-2-yl)-2,6-difluoro-phenyl]-pyrrolidin-3-yl}-acetic acid], the EC50 is reported as 200 to 2000 nM.
Molecule `O=C(O)CCC1CCc2cc(-c3cccc(OCC4CC4)c3)ccc2O1` (stereo not shown) [Example 447, 3-[6-[3-(cyclopropylmethoxy)phenyl]chroman-2-yl]propanoic acid] has an EC50 of less than 200 nM.
For `Cc1cc(OC2CCC2)nc(-c2cc(F)c(N3CCC(CC(=O)O)CC3)c(F)c2)n1` [Example 323, 2-[1-[4-[4-(cyclobutoxy)-6-methyl-pyrimidin-2-yl]-2,6-difluoro-phenyl]-4-piperidyl]acetic acid], the EC50 was 200 to 2000 nM.
`O=C(O)CCCOc1c(F)cc(-c2cccc(COCC3CC3)n2)cc1F` [Example 388, 4-[4-[6-(cyclopropylmethoxymethyl)-2-pyridyl]-2,6-difluoro-phenoxy]butanoic acid] was tested, and the EC50 was 200 to 2000 nM.
`O=C(O)CCC1CC1c1c(F)cc(-c2cccnc2SC2CCCC2)cc1F` (stereo not shown) [Example 182, 3-{2-[4-(2-cyclopentylsulfanyl-pyridin-3-yl)-2,6-difluoro-phenyl]-cyclopropyl}-propanoic acid] was tested, and the EC50 was less than 200 nM.
For `O=C(O)CC1CCN(c2c(F)cc(-c3cccc(OC4CCC4)n3)cc2F)C1` (stereo not shown) [Example 561, {1-[4-(6-cyclobutoxy-pyridin-2-yl)-2,6-difluoro-phenyl]-pyrrolidin-3-yl}-acetic acid], the EC50 was less than 200 nM.
Molecule `O=C(O)CC1CCN(c2c(F)cc(-c3cccnc3OCC3CC3)cc2F)CC1` [Example 121, 2-[1-[4-[2-(cyclopropylmethoxy)-3-pyridyl]-2,6-difluoro-phenyl]-4-piperidyl]acetic acid] has an EC50 of less than 200 nM.
`O=C(O)CCC1CC1c1c(F)cc(-c2cccnc2OC2CCOCC2)cc1F` (stereo not shown) [Example 190, 3-(2-{2,6-difluoro-4-[2-(tetrahydro-pyran-4-yloxy)-pyridin-3-yl]-phenyl}-cyclopropyl)-propanoic acid] showed an EC50 of 200 to 2000 nM.
For `CN(CCCC(=O)O)c1c(F)cc(-c2cccc(SC3CCC3)n2)cc1F` [Example 202, 4-{[4-(6-cyclobutylsulfanyl-pyridin-2-yl)-2,6-difluoro-phenyl]-methyl-amino}-butyric acid], the EC50 was less than 200 nM.
Molecule `CN(CCCC(=O)O)c1c(F)cc(-c2cccc(NCC3CC3)c2)cc1F` [Example 466, 4-[4-[3-(cyclopropylmethylamino)phenyl]-2,6-difluoro-N-methyl-anilino]butanoic acid] has an EC50 of less than 200 nM.
Work on `CC(C)Sc1ncccc1-c1ccc(N2CCC(CC(=O)O)CC2)c(F)c1` [Example 138, 2-[1-[2-fluoro-4-(2-isopropylsulfanyl-3-pyridyl)phenyl]-4-piperidyl]acetic acid] yielded an EC50 of 200 to 2000 nM.
`CCOc1cncc(-c2cc(F)c(N3CCC(CC(=O)O)CC3)c(F)c2)n1` [Example 338, 2-[1-[4-(6-ethoxypyrazin-2-yl)-2,6-difluoro-phenyl]-4-piperidyl]acetic acid] showed an EC50 of less than 200 nM.
`CN(CCCC(=O)O)c1c(F)cc(-c2cncc(OC3CCC3)n2)cc1F` [Example 488, 4-[4-[6-(cyclobutoxy)pyrazin-2-yl]-2,6-difluoro-N-methyl-anilino]butanoic acid] gave an EC50 of less than 200 nM.
In the case of `CN(CCCC(=O)O)c1c(F)cc(-c2cccc(OC3CCCC3)n2)cc1F` [Example 204, 4-{[4-(6-cyclopentyloxy-pyridin-2-yl)-2,6-difluoro-phenyl]-methyl-amino}-butyric acid], the EC50 is reported as less than 200 nM.
`COc1ccc(-c2cc(F)c(N3CCC(CC(=O)O)CC3)c(F)c2)nc1OCC1CC1` [Example 462, 2-[1-[4-[6-(cyclopropylmethoxy)-5-methoxy-2-pyridyl]-2,6-difluoro-phenyl]-4-piperidyl]acetic acid] was tested, and the EC50 was 200 to 2000 nM.
Work on `O=C(O)CCCOc1ccc(-c2cccc3c2OC2(CCCC2)O3)cc1` [Example 288, 4-(4-spiro[1,3-benzodioxol-2,1′-cyclopentan]-4-ylphenoxy)butanoic acid] yielded an EC50 of less than 200 nM.
`O=C(O)CC1CCN(c2c(F)cc(-c3cncc(OC4CCCC4)n3)cc2F)C1` (stereo not shown) [Example 497, 2-{1-[2,6-difluoro-4-(6-cyclopentoxy-pyrazin-2-yl)phenyl]pyrrolidin-3-yl}acetic acid] showed an EC50 of 200 to 2000 nM.
For `O=C(O)CCCCNc1c(F)cc(-c2cccnc2OCC2CC2)cc1F` [Example 99, 5-[4-[2-(cyclopropylmethoxy)-3-pyridyl]-2,6-difluoro-anilino]pentanoic acid], the EC50 was less than 200 nM.
`CN(Cc1cc(O)no1)c1ccc(-c2cccnc2OC2CCCC2)cc1` [Example 86, 5-[[4-[2-(cyclopentoxy)-3-pyridyl]-N-methyl-anilino]methyl]isoxazol-3-ol] gave an EC50 of less than 200 nM.
Work on `CCCSc1ncccc1-c1cc(F)c(C2CC2CCC(=O)O)c(F)c1` (stereo not shown) [Example 179, 3-{2-[2,6-difluoro-4-(2-propylsulfanyl-pyridin-3-yl)-phenyl]-cyclopropyl}-propanoic acid] yielded an EC50 of less than 200 nM.
Work on `O=C(O)CC1CCN(c2c(F)cc(-c3cccc(OC4CCC4)n3)cc2Cl)CC1` [Example 319, 2-[1-[2-chloro-4-[6-(cyclobutoxy)-2-pyridyl]-6-fluoro-phenyl]-4-piperidyl]acetic acid] yielded an EC50 of 200 to 2000 nM.
`O=C(O)CCc1ccc2cc(-c3cccc(OC4CCC4)c3)ccc2c1` [Example 147, 3-[6-(3-cyclobutoxy-phenyl)-naphthalen-2-yl]-propanoic acid] was tested, and the EC50 was less than 200 nM.
With `Oc1cc(CSc2ccc(-c3cccnc3OC3CCCC3)cc2)on1` [Example 81, 5-[[4-[2-(cyclopentoxy)-3-pyridyl]phenyl]sulfanylmethyl]isoxazol-3-ol] the EC50 was less than 200 nM.
`CCCCOc1cncc(-c2cc(F)c(N3CCC(CC(=O)O)C3)c(F)c2)n1` (stereo not shown) [Example 498, 2-{1-[2,6-difluoro-4-(6-butoxy-pyrazin-2-yl)phenyl]pyrrolidin-3-yl}acetic acid] showed an EC50 of less than 200 nM.
Work on `CC(C)COc1ccnc(-c2cc(F)c(N3CCC(CC(=O)O)CC3)c(F)c2)n1` [Example 348, 2-[1-[2,6-difluoro-4-(4-isobutoxypyrimidin-2-yl)phenyl]-4-piperidyl]acetic acid] yielded an EC50 of less than 200 nM.

Reference: patent publication US11261186B2, “Biaryl derivative as GPR120 agonist” (LG CHEM, LTD., priority 2014, dated 2022)
